Experiment [1] has as its target PRMT5-MEP50 enzyme complex (Homo sapiens (Human), UniProt O14744). Description: PRMT5 enzyme activity in vitro assay (methylation of histone H4R3, ELISA absorbance at 450 nm). In kind it is biochemical. The conditions noted are these: SAM, histone H4 peptide, room temperature 2 hours, 8 points from 10 μM to 0.128 nM. The method in brief:
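Human PRMT5-MEP50 was prepared at 5 μg/mL with SAM at 2 μM and reacted 2 h at room temperature on plate-coated histone H4 (1-20) peptide. An 8-point 1:5 compound series ran from 10 μM to 0.128 nM. H4R3 methylation was detected by antibody/HRP ELISA at 450 nm to give IC50.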
On the technique in general: In an ELISA, binding on a coated surface is turned into a signal by an enzyme label.

The test system of experiment [2] is SDMA levels in the tumor (U87MG tumor cells implanted subcutaneously). The experiment in a line: Test for in vivo target inhibitory activity (SDMA levels in U87MG tumor). The conditions noted are these: U87MG tumor in nude mice, oral 25 or 50 mg/kg 1-2 times daily for one week. On the procedure: Test for in vivo target inhibitory activity
After U87MG tumor cells were implanted subcutaneously in nude mice, a PRMT5 inhibitor was administered orally (25 or 50 mg/kg) 1-2 times daily for one week, and then the degree to which SDMA levels in the tumor decreased was measured.
Reagents: Bradford's solution (Catalog No. 500-0006) was purchased from Bio-rad (USA). SDMA antibody (Catalog No. 13222s) was purchased from Cell Signaling Technology (USA). SmD3 antibody (Catalog No. ap12451a) was purchased from Abgent (USA), and secondary antibody (Catalog No. ab6721) and TMB substrate (Catalog No. ab210902) were purchased from Abcam (UK).
Experimental procedure: The tumor tissues transplanted into the mice were excised, the cells were lysed, and then quantified with Bradford's solution. 5-10 μg of protein per sample was diluted with carbonate-bicarbonate buffer and dispensed into a 96-well plate and reacted at room temperature for 2 hours. After washing with phosphate buffered saline (PBST) containing 0.05% Tween-20 3 times, 200 μL of PBST containing 5% bovine serum albumin (BSA-PBST) was added and reacted at room temperature for 2 hours. After washing with PBST 3 times, the SDMA antibody and the SmD3 antibody were diluted in BSA-PBST, and 100 μL of each was dispensed onto the plate and reacted at 4° C. overnight. After washing with PBST 3 times the next day, 100 μL of the secondary antibody diluted in BSA-PBST was added and reacted at room temperature for 1 hour. After washing with PBST 3 times, 100 μL of TMB substrate was added and reacted at room temperature for 10-20 minutes, and 100 μL of 1N sulfuric acid solution was added to terminate the reaction. Then, the absorbance at 450 nm was measured to calculate the degree of SDMA inhibition by the compound. (+++: more than 70%, ++: more than 30% and 70% or less, +: 30% or less)

Sequence of PRMT5-MEP50 enzyme complex (O14744 2-637): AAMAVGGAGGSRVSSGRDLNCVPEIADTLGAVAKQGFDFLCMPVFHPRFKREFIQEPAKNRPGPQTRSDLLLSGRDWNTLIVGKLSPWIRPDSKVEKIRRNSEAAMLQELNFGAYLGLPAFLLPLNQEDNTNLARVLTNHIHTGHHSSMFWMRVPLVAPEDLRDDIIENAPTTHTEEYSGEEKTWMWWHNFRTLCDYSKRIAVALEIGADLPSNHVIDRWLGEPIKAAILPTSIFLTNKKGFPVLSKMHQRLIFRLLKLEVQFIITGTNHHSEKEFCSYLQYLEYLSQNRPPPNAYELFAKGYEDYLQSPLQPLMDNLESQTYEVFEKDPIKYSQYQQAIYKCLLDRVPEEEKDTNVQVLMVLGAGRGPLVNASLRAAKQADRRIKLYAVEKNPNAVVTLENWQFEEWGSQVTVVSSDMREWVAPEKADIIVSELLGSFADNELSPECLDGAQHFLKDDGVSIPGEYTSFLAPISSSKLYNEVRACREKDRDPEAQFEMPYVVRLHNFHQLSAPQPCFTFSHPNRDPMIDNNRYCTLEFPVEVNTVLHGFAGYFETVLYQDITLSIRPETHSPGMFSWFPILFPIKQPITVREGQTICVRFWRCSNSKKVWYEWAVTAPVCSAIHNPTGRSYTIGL
Sequence of PRMT5-MEP50 enzyme complex (Q9BQA1 2-342 partner): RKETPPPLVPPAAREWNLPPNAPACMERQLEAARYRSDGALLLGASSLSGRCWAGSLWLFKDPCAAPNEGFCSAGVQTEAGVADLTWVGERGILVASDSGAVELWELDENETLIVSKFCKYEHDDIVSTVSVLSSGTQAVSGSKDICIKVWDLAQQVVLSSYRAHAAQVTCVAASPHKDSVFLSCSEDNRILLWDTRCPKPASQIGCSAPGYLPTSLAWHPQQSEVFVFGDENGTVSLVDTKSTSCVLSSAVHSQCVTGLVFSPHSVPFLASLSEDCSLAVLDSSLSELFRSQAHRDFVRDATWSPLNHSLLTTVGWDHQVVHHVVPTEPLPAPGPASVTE

Regarding `CCCc1ccc2c(c1)OCCN(C[C@H](O)CN1CCc3ccccc3C1)C2=O` [Example 11, 4-[(2R)-3-(3,4-dihydro-1H-isoquinolin-2-yl)-2-hydroxy-propyl]-8-propyl-2,3-dihydro-1,4-benzoxazepin-5-one], in experiment [1], the IC50 fell in the range of 0.1 to 1 µM. For the same compound, the “SDMA inhibition (%)” value in experiment [2] is “++ (++: more than 30% and 70% or less)”.

Compound `O=C1c2ccc(CN3CCOCC3)cc2OCCN1C[C@H](O)CN1CCc2ccccc2C1` [Example 22, 4-[(2R)-3-(3,4-dihydro-1H-isoquinolin-2-yl)-2-hydroxy-propyl]-8-(morpholinomethyl)-2,3-dihydro-1,4-benzoxazepin-5-one] had a concentration for half-maximal inhibition (IC50) in experiment [1] of 0.001 to 0.1 µM. Further, the “SDMA inhibition (%)” value in experiment [2] is listed as “+++ (+++: more than 70%)”.

In the case of `CN1CCN(C[C@H](O)CN2CCc3ccccc3C2)C(=O)c2ccc(Br)cc21` [Example 156, 8-bromo-4-[(2R)-3-(3,4-dihydro-1H-isoquinolin-2-yl)-2-hydroxy-propyl]-1-methyl-2,3-dihydro-1,4-benzodiazepin-5-one], the IC50 in experiment [1] was 0.001 to 0.1 µM. Also, in experiment [2], the “SDMA inhibition (%)” value is “++ (++: more than 30% and 70% or less)”.

`CCN1CCC(Oc2ccc3c(c2)OCCN(C[C@H](O)CN2CCc4ccccc4C2)C3=O)CC1` [Example 88, 4-[(2R)-3-(3,4-dihydro-1H-isoquinolin-2-yl)-2-hydroxy-propyl]-8-[(1-ethyl-4-piperidyl)oxy]-2,3-dihydro-1,4-benzoxazepin-5-one] registered an IC50 in experiment [1] of 0.001 to 0.1 µM. Also, the “SDMA inhibition (%)” value in experiment [2] is recorded as “+++ (+++: more than 70%)”.

On to `CN1CCC(Oc2ccc3c(c2)OC(C)(C)CN(C[C@H](O)CN2CCc4ccccc4C2)C3=O)CC1` [Example 112, 4-[(2R)-3-(3,4-dihydro-1H-isoquinolin-2-yl)-2-hydroxy-propyl]-2,2-dimethyl-8-[(1-methyl-4-piperidyl)oxy]-3H-1,4-benzoxazepin-5-one], for which, in experiment [1], the IC50 was in the range of 0.1 to 1 µM. Moreover, the “SDMA inhibition (%)” value in experiment [2] is “+++ (+++: more than 70%)”.

In experiment [1], `CN1CCC(Oc2ccc3c(c2)OCCN(C[C@H](O)CN2CCc4ccccc4C2)C3=O)CC1` [Example 87, 4-[(2R)-3-(3,4-dihydro-1H-isoquinolin-2-yl)-2-hydroxy-propyl]-8-[(1-methyl-4-piperidyl)oxy]-2,3-dihydro-1,4-benzoxazepin-5-one] registered a half-inhibitory concentration (IC50) of 0.001 to 0.1 µM. Moreover, the “SDMA inhibition (%)” value in experiment [2] is on record as “+++ (+++: more than 70%)”.

Regarding `O=C1c2ccc(Br)cc2CCCN1C[C@H](O)CN1CCc2ccccc2C1` [Example 155, 7-bromo-2-[(2R)-3-(3,4-dihydro-1H-isoquinolin-2-yl)-2-hydroxy-propyl]-4,5-dihydro-3H-2-benzazepin-1-one], in experiment [1], the IC50 lay within 0.001 to 0.1 µM. In experiment [2], the “SDMA inhibition (%)” value is “+ (+: 30% or less)”.

Compound `O=C1c2ccc(OC3CCN(C4COC4)CC3)cc2OCCN1C[C@H](O)CN1CCc2ccccc2C1` [Example 92, 4-[(2R)-3-(3,4-dihydro-1H-isoquinolin-2-yl)-2-hydroxy-propyl]-8-[[1-(oxetan-3-yl)-4-piperidyl]oxy]-2,3-dihydro-1,4-benzoxazepin-5-one] had an IC50 in experiment [1] of 0.1 to 1 µM. Besides, the “SDMA inhibition (%)” value in experiment [2] is on record as “+++ (+++: more than 70%)”.

For `C[C@@H]1CN(C[C@H](O)CN2CCc3ccccc3C2)C(=O)c2ccc(CN3CC4(COC4)C3)cc2O1` [Example 250, (2R)-4-[(2R)-3-(3,4-dihydro-1H-isoquinolin-2-yl)-2-hydroxypropyl]-2-methyl-8-(2-oxa-6-azaspiro[3.3]heptan-6-ylmethyl)-2,3-dihydro-1,4-benzoxazepin-5-one], in experiment [1], the IC50 was in the range of 0.1 to 1 µM.

With `O=C1c2ccc(OC3CN(C(=O)C4CC4)C3)cc2OCCN1C[C@H](O)CN1CCc2ccccc2C1` [Example 85, 8-[1-(cyclopropanecarbonyl)azetidin-3-yl]oxy-4-[(2R)-3-(3,4-dihydro-1H-isoquinolin-2-yl)-2-hydroxy-propyl]-2,3-dihydro-1,4-benzoxazepin-5-one], the IC50 in experiment [1] lay in the range of 0.001 to 0.1 µM.

The compound `CC1(C)CN(C[C@H](O)CN2CCc3ccccc3C2)C(=O)c2ccc(CN3CCOCC3)cc2O1` [Example 111, 4-[(2R)-3-(3,4-dihydro-1H-isoquinolin-2-yl)-2-hydroxy-propyl]-2,2-dimethyl-8-(morpholinomethyl)-3H-1,4-benzoxazepin-5-one] came in with an IC50 in experiment [1] of 0.1 to 1 µM.

As to `C[C@H]1CN(C[C@H](O)CN2CCc3ccccc3C2)C(=O)c2ccc(OC3CN(CCF)C3)cc2O1` [Example 201, (2S)-4-[(2R)-3-(3,4-dihydro-1H-isoquinolin-2-yl)-2-hydroxy-propyl]-8-[1-(2-fluoroethyl)azetidin-3-yl]oxy-2-methyl-2,3-dihydro-1,4-benzoxazepin-5-one], the IC50 in experiment [1] lay in the range of 0.1 to 1 µM.

`C[C@@H]1CCCN1Cc1ccc2c(c1)OCCN(C[C@H](O)CN1CCc3ccccc3C1)C2=O` [Example 36, 4-[(2R)-3-(3,4-dihydro-1H-isoquinolin-2-yl)-2-hydroxy-propyl]-8-[[(2R)-2-methylpyrrolidin-1-yl]methyl]-2,3-dihydro-1,4-benzoxazepin-5-one]: in experiment [1], the half-inhibitory concentration (IC50) was in the range of 0.1 to 1 µM.

The compound `CC1CN(C[C@H](O)CN2CCc3ccccc3C2)C(=O)c2ccc(OC3CCN(C)CC3)nc2O1` (stereo partly drawn) [Example 144, 4-[(2R)-3-(3,4-dihydro-1H-isoquinolin-2-yl)-2-hydroxypropyl]-2-methyl-8-[(1-methyl-4-piperidyl)oxy]-2,3-dihydropyrido[3,2-f][1,4]oxazepin-5-one] yielded a half-maximal inhibitory concentration (IC50) in experiment [1] of 0.1 to 1 µM.

In the case of `CC(=O)N1CC2(CC(Oc3ccc4c(c3)OCCN(C[C@H](O)CN3CCc5ccccc5C3)C4=O)C2)C1` [Example 174, 8-[(2-acetyl-2-azaspiro[3.3]heptan-6-yl)oxy]-4-[(2R)-3-(3,4-dihydro-1H-isoquinolin-2-yl)-2-hydroxy-propyl]-2,3-dihydro-1,4-benzoxazepin-5-one], the IC50 in experiment [1] fell in the range of 0.001 to 0.1 µM.

As for `CC(c1ccc2c(c1)OCCN(C[C@H](O)CN1CCc3ccccc3C1)C2=O)N1CCOCC1` (stereo partly drawn) [Example 221, 4-[(2R)-3-(3,4-dihydro-1H-isoquinolin-2-yl)-2-hydroxy-propyl]-8-(1-morpholinoethyl)-2,3-dihydro-1,4-benzoxazepin-5-one], the IC50 in experiment [1] is 0.1 to 1 µM.

As for `O=C1c2ccc(CN3CCCOCC3)cc2OCCN1C[C@H](O)CN1CCc2ccccc2C1` [Example 39, 4-[(2R)-3-(3,4-dihydro-1H-isoquinolin-2-yl)-2-hydroxy-propyl]-8-(1,4-oxazepan-4-ylmethyl)-2,3-dihydro-1,4-benzoxazepin-5-one], the IC50 in experiment [1] was 0.1 to 1 µM.

On to `CC(=O)N1CCC(Oc2ccc3c(c2)OC(C)(C)CN(C[C@H](O)CN2CCc4ccccc4C2)C3=O)CC1` [Example 180, 8-[(1-acetyl-4-piperidyl)oxy]-4-[(2R)-3-(3,4-dihydro-1H-isoquinolin-2-yl)-2-hydroxy-propyl]-2,2-dimethyl-3H-1,4-benzoxazepin-5-one], for which the IC50 in experiment [1] lay within 0.001 to 0.1 µM.

With `CN1CCCC(Oc2ccc3c(c2)OCCN(C[C@H](O)CN2CCc4ccccc4C2)C3=O)C1` (stereo partly drawn) [Example 68, 4-[(2R)-3-(3,4-dihydro-1H-isoquinolin-2-yl)-2-hydroxy-propyl]-8-[(1-methyl-3-piperidyl)oxy]-2,3-dihydro-1,4-benzoxazepin-5-one], the IC50 in experiment [1] lay within 0.1 to 1 µM.

Regarding `CCN1CC=C(c2ccc3c(c2)OCCN(C[C@H](O)CN2CCc4ccccc4C2)C3=O)CC1` [Example 18, 4-[(2R)-3-(3,4-dihydro-1H-isoquinolin-2-yl)-2-hydroxy-propyl]-8-(1-ethyl-3,6-dihydro-2H-pyridin-4-yl)-2,3-dihydro-1,4-benzoxazepin-5-one], the IC50 in experiment [1] lay within 0.1 to 1 µM.

By IC50 is commonly meant the concentration that inhibits the measured activity by half. The low end stands for inhibition by little substance, the high end for a need for much substance.

(Values after patent US11111237B2, “Bicyclic compound and use thereof” (SK BIOPHARMACEUTICALS CO., LTD., priority 2019, dated 2021).)
